This is an account of results in US8362023B2, “Pyrazolo pyrimidines” (Hoffmann-La Roche Inc., priority 2011, dated 2013).

Where a name gives a salt, the structure may show the parent alone.

In assay [1] the target is T1, Human DYRK1B (Homo sapiens, UniProt Q9Y463).
T1 construct: purchased Invitrogen PR8350B (former PV4649)
Kind of assay: DYRK1B Kinase TR-FRET (IMAP-Tb) Assay. As to conditions: TR-FRET (IMAP-Tb); ATP 70 μM; 37° C. for 60 minutes; averages of multiple runs; read-out: Enzyme IC50 (μM) DYRK1B. The class given is biochemical. On the technique in general: TR-FRET usually uses a lanthanide donor and a delayed reading to cut background.

In assay [2] the target is T2, Human DYRK1A (Homo sapiens, UniProt Q13627).
T2 construct: purchased Invitrogen PV3997
Kind of assay: DYRK1A Kinase TR-FRET (IMAP-Tb) Assay. The class given is biochemical. Particulars: TR-FRET (IMAP-Tb); ATP 70 μM; 37° C. for 60 minutes; averages of multiple runs; read-out: Enzyme IC50 (μM) DYRK1A. A digest of the protocol: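 Human DYRK1A phosphorylates a fluorescent substrate peptide (1.0 μM) in HEPES pH 7.0 buffer with Mg2+, DTT and vanadate for 60 min at 37 °C. The phosphopeptide is captured by IMAP beads carrying a Tb tracer, and the TR-FRET signal is read at 340 nm excitation. IC50 reflects inhibition of substrate phosphorylation.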

In assay [3] the test system is SW620 human colon cancer cells. The assay is described as follows: SW620 Cell Viability Assay. Particulars: SW-620, 96 h, CellTiter-Glo Luminescent Cell Viability Assay, 4 days incubation, read-out: Cellular EC50 (μM) SW620. The class given is cell-based. The procedure: SW620 Cell Viability Assay
1. Cell Plate Preparation: SW620 human colon cancer cells (known to express DYRK1B), obtained from ATCC, were seeded into 96-well plates at 3×10^3 cells/well in 50 μL of media. • Harvested the required number of cells (counts & viability determined by Guava Viacount). • Centrifuge cells to pellet and removed supernant. • Resuspended in growth media (50 μL/well) & pipetted thoroughly to break up clumps. • Setup for ˜100 wells/plate, therefore, VT=5 mL/plate @ […].
1A. Some cells (S—) were allowed to attach for 24 hrs, serum starved for 48 hrs, and then followed with test compound treatments.
Test compound solution were prepared in regular corresponding media supplemented with serum.
2. Test compound Preparation: Drugs were solubilized in either DMSO or media and prepared at various stock concentrations. • All compounds were incubated at 37° C. for 30 minutes and vortexed. • (5 mM stocks of test compound were prepared for non-soluble test compounds)
3. Test compound Plate Preparation: • The 10 mM test compound stock was diluted to a concentration of 100× the final Cmax concentration. • Then the test compound stock is diluted 50-fold in media and/or second test compound for a final Cmax concentration in the test compound plate. • The Cmax in the test compound plate (2% DMSO) is 2-fold higher than the final Cmax in the cell plate (60 μl, titrations were 1:3).
4. Viability Assay: This assay was performed as follows: • Transfer 50 μL of test compound solution per well from the test compound plate onto the cell plate prepared in Step #1. • Mix the plate with treated cells by pipetting up and down three times with 200 μL multi-channel pipette. • Incubate the cells in 5% CO2 incubator @ 37° C. for 4 days. • Run the CellTiter-Glo™ Luminescent Cell Viability Assay.
The results of this assay, given as EC50 values, indicate the concentration of test compound that inhibits tumor cell proliferation by 50%.
On the technique in general: In ATP-based viability assays light output follows the ATP content of the culture.

T1 sequence (Q9Y463 whole entry): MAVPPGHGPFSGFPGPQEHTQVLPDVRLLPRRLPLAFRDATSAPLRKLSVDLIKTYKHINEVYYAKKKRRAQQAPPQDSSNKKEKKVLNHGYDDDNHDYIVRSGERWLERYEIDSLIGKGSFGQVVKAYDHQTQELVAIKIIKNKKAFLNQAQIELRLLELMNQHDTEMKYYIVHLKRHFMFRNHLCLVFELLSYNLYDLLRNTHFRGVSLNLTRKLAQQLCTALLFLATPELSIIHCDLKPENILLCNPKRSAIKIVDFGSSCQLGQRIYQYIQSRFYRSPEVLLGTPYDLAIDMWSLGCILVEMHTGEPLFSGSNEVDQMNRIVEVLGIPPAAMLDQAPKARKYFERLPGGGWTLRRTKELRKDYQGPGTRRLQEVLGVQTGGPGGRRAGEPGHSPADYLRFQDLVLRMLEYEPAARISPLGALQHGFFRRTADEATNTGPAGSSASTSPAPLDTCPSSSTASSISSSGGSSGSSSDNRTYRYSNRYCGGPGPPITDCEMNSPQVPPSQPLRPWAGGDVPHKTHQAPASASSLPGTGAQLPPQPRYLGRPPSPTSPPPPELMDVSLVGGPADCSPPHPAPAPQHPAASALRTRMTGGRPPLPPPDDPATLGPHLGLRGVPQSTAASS

On to `Clc1ccc(CNc2nccc(-c3n[nH]c4nc(NCCN5CCOCC5)ncc34)n2)cc1` [Example 64, {3-[2-(4-Chloro-benzylamino)-pyrimidin-4-yl]-1H-pyrazolo[3,4-d]pyrimidin-6-yl}-(2-morpholin-4-yl-ethyl)-amine; hydrochloride], for which the IC50 (as a rule, the concentration at which inhibition is half-maximal) in assay [1] turned out to be 0.353 µM; in assay [2] it was 0.242 µM. The EC50 – broadly, the midpoint of the concentration-response curve – in assay [3] is greater than 10 µM.

On to `NCC(Nc1nccc(-c2n[nH]c3nc(N[C@H]4CC[C@H](N)CC4)ncc23)n1)c1cccc(Cl)c1` (stereo partly drawn) [Example 78, N-(3-{2-[2-Amino-1-(3-chloro-phenyl)-ethylamino]-pyrimidin-4-yl}-1H-pyrazolo[3,4-d]pyrimidin-6-yl)-cyclohexane-1,4-diamine; hydrochloride], for which the 50% inhibitory concentration (IC50) in assay [1] is less than 0.0046 µM; in assay [2], 0.0046 µM. Further, the EC50 in assay [3] worked out at 0.7 µM.

In the case of `NCCC(Nc1cccc(-c2n[nH]c3nc(N[C@H]4CC[C@H](N)CC4)ncc23)n1)c1ccccc1` (stereo partly drawn) [Example 69, N-{3-[6-(3-Amino-1-phenyl-propylamino)-pyridin-2-yl]-1H-pyrazolo[3,4-d]pyrimidin-6-yl}-cyclohexane-1,4-diamine; hydrochloride], the IC50 in assay [1] was found to be 0.197 µM; in assay [2] it was 0.231 µM. The EC50 in assay [3] came to 0.001 µM.

Turning to `N[C@H]1CC[C@H](Nc2ncc3c(-c4cccc(NCc5ccccc5)c4)n[nH]c3n2)CC1` [Example 52, N-[3-(3-Benzylamino-phenyl)-1H-pyrazolo[3,4-d]pyrimidin-6-yl]-cyclohexane-1,4-diamine], the IC50 in assay [1] was 0.241 µM; in assay [2], 0.594 µM. The EC50 in assay [3] is 0.923 µM.

Take `N[C@H]1CC[C@H](Nc2ncc3c(-c4ccnc(NCc5cccc(Cl)c5)n4)n[nH]c3n2)CC1` [Example 71, N-{3-[2-(3-Chloro-benzylamino)-pyrimidin-4-yl]-1H-pyrazolo[3,4-d]pyrimidin-6-yl}-cyclohexane-1,4-diamine; hydrochloride]: the IC50 in assay [1] worked out at 0.006 µM; in assay [2], 0.0046 µM. Besides, in assay [3], the half-maximal effective concentration (EC50) was 0.027 µM.

On to `Clc1ccccc1CNc1cccc(-c2n[nH]c3nc(NCCN4CCOCC4)ncc23)n1` [Example 59, {3-[6-(2-Chloro-benzylamino)-pyridin-2-yl]-1H-pyrazolo[3,4-d]pyrimidin-6-yl}-(2-morpholin-4-yl-ethyl)-amine], for which the figures for the IC50 in assay [1] and in assay [2] were 0.924 µM and 0.663 µM, respectively. Besides, the EC50 in assay [3] is greater than 10 µM.

As for `N[C@H]1CC[C@H](Nc2ncc3c(-c4cccc(NCc5ccc(Cl)cc5)c4)n[nH]c3n2)CC1` [Example 55, N-{3-[3-(4-Chloro-benzylamino)-phenyl]-1H-pyrazolo[3,4-d]pyrimidin-6-yl}-cyclohexane-1,4-diamine], the concentration for half-maximal inhibition (IC50) in assay [1] is 0.181 µM; in assay [2], 0.502 µM. The EC50 in assay [3] was 1.85 µM.

For `N[C@H]1CC[C@H](Nc2ncc3c(-c4cccc(NCc5ccccc5)n4)n[nH]c3n2)CC1` [Example 49, N-[3-(6-Benzylamino-pyridin-2-yl)-1H-pyrazolo[3,4-d]pyrimidin-6-yl]-cyclohexane-1,4-diamine], the IC50 in assay [1] is 0.101 µM; in assay [2] it was 0.0124 µM. The EC50 in assay [3] is 1.71 µM.

`c1cc(NCc2cccs2)cc(-c2n[nH]c3nc(NCCN4CCOCC4)ncc23)c1` [Example 54, (2-Morpholin-4-yl-ethyl)-(3-{3-[(thiophen-2-ylmethyl)-amino]-phenyl}-1H-pyrazolo[3,4-d]pyrimidin-6-yl)-amine]: the IC50 in assay [1] came out at 4.96 µM; in assay [2] it was 3.85 µM. The EC50 in assay [3] is greater than 10 µM.

On to `NCCC(Nc1nccc(-c2n[nH]c3nc(N[C@H]4CC[C@H](N)CC4)ncc23)n1)c1cccc(Cl)c1` (stereo partly drawn) [Example 80, N-(3-{2-[3-Amino-1-(3-chloro-phenyl)-propylamino]-pyrimidin-4-yl}-1H-pyrazolo[3,4-d]pyrimidin-6-yl)-cyclohexane-1,4-diamine; hydrochloride], for which the IC50 in assay [1] was less than 0.0046 µM; in assay [2], 0.0046 µM. In addition, the EC50 in assay [3] amounted to 0.89 µM.

`N[C@H]1CC[C@H](Nc2ncc3c(-c4cccc(NCc5ccsc5)c4)n[nH]c3n2)CC1` [Example 58, N-(3-{3-[(Thiophen-3-ylmethyl)-amino]-phenyl}-1H-pyrazolo[3,4-d]pyrimidin-6-yl)-cyclohexane-1,4-diamine]: the results for the IC50 in assay [1] and in assay [2] were 0.762 µM and 2.61 µM, respectively. Further, in assay [3], the EC50 was 6.41 µM.
